According to patent US7390806B2, “Antibiotics containing borinic acid complexes and methods of use” (Anacor Pharmaceuticals, Inc., priority 2002, dated 2008):
Converted amounts (≈) assume the structure as drawn. Like-named read-outs stand apart in the source and are kept apart here.

Legend:
[1] = system: S. aureus ATCC 29213; experiment: MIC determination, S. aureus ATCC 29213; format: cell-based, Staphylococcus aureus; conditions: for MIC: Staphylococcus aureus; for MIC S. aureus ATCC 29213: Table 1
[2] = system: S. epidermidis ATCC 12228; experiment: MIC determination, S. epidermidis ATCC 12228; format: cell-based, Staphylococcus epidermidis; conditions: for MIC: Staphylococcus epidermidis; for MIC S. epidermidis ATCC 12228: Table 1
[3] = system: S. pneumoniae ATCC 6301; experiment: MIC determination, S. pneumoniae ATCC 6301; format: cell-based, Streptococcus pneumoniae; conditions: for MIC: Streptococcus pneumoniae; for MIC S. pneumoniae ATCC 6301: Table 1
[4] = system: E. faecalis ATCC 29212; experiment: MIC determination, E. faecalis ATCC 29212; format: cell-based, Enterococcus faecalis; conditions: for MIC: Enterococcus faecalis; for MIC E. faecalis ATCC 29212: Table 1
[5] = system: E. faecium CT-26; experiment: MIC determination, E. faecium CT-26; format: cell-based, Enterococcus faecium; conditions: for MIC: Enterococcus faecium; for MIC E. faecium CT-26: Table 1
[6] = system: M. catarrhalis ATCC 25238; experiment: MIC determination, M. catarrhalis ATCC 25238; format: cell-based; conditions: for MIC: Moraxella catarrhalis; for MIC M. catarrhalis ATCC 25238: Table 1
[7] = ATCC6301, Table 1, read-out: MIC S. pneumoniae ATCC 6301
[8] = ATCC29212, Table 1, read-out: MIC E. faecalis ATCC 29212
[9] = ATCC25238, Table 1, read-out: MIC M. catarrhalis ATCC 25238

| SMILES | MIC S. aureus ATCC 29213 [1] | MIC S. epidermidis ATCC 12228 [2] | MIC S. pneumoniae ATCC 6301 [3] | MIC E. faecalis ATCC 29212 [4] | MIC E. faecium CT-26 [5] | MIC M. catarrhalis ATCC 25238 [6] | other results |
| --- | --- | --- | --- | --- | --- | --- | --- |
| Nc1ccc2cccc(O)c2n1 [Compound 17] | – | – | – | – | – | – | MIC ([1]; ATCC29213, read-out: MIC S. aureus ATCC 29213): 0.25 µg/mL (≈ 1.56 µM); MIC ([2]; ATCC12228, read-out: MIC S. epidermidis ATCC 12228): 2 µg/mL (≈ 12.5 µM); MIC ([3]; ATCC6301, read-out: MIC S. pneumoniae ATCC 6301): 2 µg/mL (≈ 12.5 µM); MIC ([4]; ATCC29212, read-out: MIC E. faecalis ATCC 29212): 8 µg/mL (≈ 49.9 µM); MIC ([5]; CT26, read-out: MIC E. faecium CT-26): 8 µg/mL (≈ 49.9 µM); MIC ([6]; ATCC25238, read-out: MIC M. catarrhalis ATCC 25238): 2 µg/mL (≈ 12.5 µM) |
| Oc1cccc2cccnc12 [Compound 77, 8-hydroxyquinoline] | 2 micrograms per ml | 1 micrograms per ml | 1 micrograms per ml | 8 micrograms per ml | 4 micrograms per ml | 2 micrograms per ml | – |
| COc1cccc2c(O)cc(C(=O)O)nc12 [Compound 25] | – | – | – | – | – | – | MIC ([1]; ATCC29213, Table 1, read-out: MIC S. aureus ATCC 29213): 0.5 µg/mL (≈ 2.28 µM); MIC ([2]; ATCC12228, Table 1, read-out: MIC S. epidermidis ATCC 12228): 8 µg/mL (≈ 36.5 µM); MIC [3, 7]: 2 µg/mL (≈ 9.12 µM); MIC [4, 8]: 16 µg/mL (≈ 73 µM); MIC ([5]; CT26, Table 1, read-out: MIC E. faecium CT-26): 16 µg/mL (≈ 73 µM); MIC [6, 9]: 2 µg/mL (≈ 9.12 µM) |
| Oc1cccc2cccnc12 [Compound 94, 8-hydroxyquinoline] | 2 micrograms per ml | 1 micrograms per ml | 1 micrograms per ml | 8 micrograms per ml | 4 micrograms per ml | 2 micrograms per ml | – |
| Fc1cccc(B(Oc2cccc3cccnc23)C2CC2)c1 [Compound 70, (3-Fluorophenyl)cyclopropylborinic acid 8-hydroxyquinoline ester] | 2 micrograms per ml | 1 micrograms per ml | 1 micrograms per ml | 64 micrograms per ml | 2 micrograms per ml | 0.5 micrograms per ml | – |
| Oc1cccc2cccnc12 [Compound 78, 8-hydroxyquinoline] | 2 micrograms per ml | 1 micrograms per ml | 1 micrograms per ml | 8 micrograms per ml | 2 micrograms per ml | 2 micrograms per ml | – |
| Oc1cccc2cccnc12 [Compound 91, 8-hydroxyquinoline] | 2 micrograms per ml | 1 micrograms per ml | 2 micrograms per ml | 8 micrograms per ml | 2 micrograms per ml | 1 micrograms per ml | – |
| Oc1cccc2cccnc12 [Compound 100, 8-hydroxyquinoline] | 2 micrograms per ml | 1 micrograms per ml | 2 micrograms per ml | 4 micrograms per ml | 2 micrograms per ml | 1 micrograms per ml | – |
| Oc1cccc2cccnc12 [Compound 20, 8-hydroxyquinoline] | 0.25 micrograms per ml | 1 micrograms per ml | 2 micrograms per ml | 8 micrograms per ml | 4 micrograms per ml | 2 micrograms per ml | – |
| Oc1cccc2cccnc12 [Compound 95, 8-hydroxyquinoline] | 2 micrograms per ml | 1 micrograms per ml | 2 micrograms per ml | 8 micrograms per ml | 2 micrograms per ml | 1 micrograms per ml | – |
| Oc1c(Cl)cc(Cl)c2cccnc12 [Compound 71] | 2 micrograms per ml | 2 micrograms per ml | 8 micrograms per ml | 64 micrograms per ml | 4 micrograms per ml | 0.12 micrograms per ml | – |
| Oc1ccc(F)c2cccnc12 [Compound 64] | 2 micrograms per ml | 2 micrograms per ml | 4 micrograms per ml | 8 micrograms per ml | 8 micrograms per ml | 1 micrograms per ml | – |
| Oc1cccc2cccnc12 [Compound 46, 8-hydroxyquinoline] | 1 micrograms per ml | 1 micrograms per ml | 1 micrograms per ml | 4 micrograms per ml | 1 micrograms per ml | 1 micrograms per ml | – |
| Oc1c(Cl)cc(Cl)c2cccnc12 [Compound 23] | 0.5 micrograms per ml | 16 micrograms per ml | – | – | 16 micrograms per ml | – | MIC [3, 7]: 8 µg/mL (≈ 37.4 µM); MIC [4, 8]: 64 µg/mL (≈ 299 µM); MIC [6, 9]: 0.12 µg/mL (≈ 0.561 µM) |
| Oc1cccc2cccnc12 [Compound 80, 8-hydroxyquinoline] | 2 micrograms per ml | 1 micrograms per ml | 2 micrograms per ml | 4 micrograms per ml | 4 micrograms per ml | 2 micrograms per ml | – |
| Oc1cccc2cccnc12 [Compound 98, 8-hydroxyquinoline] | 2 micrograms per ml | 1 micrograms per ml | 1 micrograms per ml | 8 micrograms per ml | 4 micrograms per ml | 1 micrograms per ml | – |
| C#CB(Oc1cccc2cccnc12)c1ccccc1Cl [Compound 43, (2-Chlorophenyl)ethynylborinic acid 8-Hydroxyquinoline ester] | 1 micrograms per ml | 1 micrograms per ml | 1 micrograms per ml | 8 micrograms per ml | 2 micrograms per ml | 1 micrograms per ml | – |
| Oc1cccc2cccnc12 [Compound 39, 8-hydroxyquinoline] | 1 micrograms per ml | 1 micrograms per ml | 1 micrograms per ml | 8 micrograms per ml | 2 micrograms per ml | 2 micrograms per ml | – |
| Oc1cccc2cccnc12 [Compound 68, 8-hydroxyquinoline] | 2 micrograms per ml | 2 micrograms per ml | 16 micrograms per ml | 32 micrograms per ml | 4 micrograms per ml | 0.12 micrograms per ml | – |
| Oc1cccc2cccnc12 [Compound 54, 8-hydroxyquinoline] | 2 micrograms per ml | 1 micrograms per ml | 2 micrograms per ml | 8 micrograms per ml | 4 micrograms per ml | 1 micrograms per ml | – |
